Results as given in patent publication US7122203B2, “Stabilized formulations of 6-hydroxy-3-(-4-[2-(piperidin-1-yl) ethoxy]phenoxy)-2-(4-methoxyphenyl) benzo[b]thiophene and salts thereof” (Eli Lilly and Company, priority 2000, dated 2006).

Key:
Assay type in all cases: physicochemical
[1] = Physical stability of crystal forms (XRD at different relative humidities, variable temperature XRD)
Experimental: XRD patterns were obtained on a […] powder diffractometer, equipped with a CuKα source (λ=1.54056 Å) and a Kevex solid-state detector, operating at 50 kV and 40 mA. Each sample was scanned between 4° and 35° in 2θ. Samples were allowed to equilibrate for at least 30 minutes at the desired temperature and/or relative humidity before data collection. Variable temperature X-ray powder diffraction patterns were obtained on a […] powder diffractometer which was equipped with a CuKα source (λ=1.54056 Å) operated at 50 kV and 40 mA with a scintillation detector and nickel filter. The powder was packed into a top-loading, recessed temperature controlled holder and a smooth surface was obtained for diffraction. The sample was scanned from 2 to 35° 2θ at 2.5 seconds per step size of 0.04° beginning at 25° C. after an equilibration time of 5 minutes. Subsequent scans were obtained at increasing temperature increments of 25° C. to a maximum of 125° C.

[2] = Aqueous solubility and dissolution rate of crystal forms
[3] = Hygroscopicity / moisture sorption isotherms; details: for water content: ambient relative humidities (about 50% R.H.); for water content / immediate weight gain (moisture): hydrochloride; for immediate weight gain (moisture): upon initial exposure to approximately 5% R.H.
Experimental: Hygroscopicity measurements were made for F-I and F-III using the VTI method as follows. Each sample was dried under vacuum at 60° C. until no further weight loss was detected, at which time the sample chamber was brought to 0% relative humidity. Moisture sorption isotherms were obtained at 25° C. using a VTI vacuum moisture balance with the following conditions: sample size 10–15 mg, adsorption/desorption range 0–95% relative humidity, step interval 5%, sample interval 10 minutes.
Moisture Sorption Isotherms were generated using a VTI SGA-100 flow instrument. The samples were analyzed at 25° C. from 0–95% relative humidity (RH) for adsorption and from 95–5% RH for desorption in steps of 5% RH. The adsorption and desorption isotherms were generated as a graph of the % weight change vs. % RH.

Row | physical stability over the entire relative humidity range [1] | aqueous solubilities and dissolution rates of the two forms (F-I vs F-III) [2] | water content [3] | immediate weight gain (moisture) ([3]; 25° C.) [%] | thermodynamic stability among known forms of arzoxifene hydrochloride ([1]; ambient storage conditions) | change in diffraction pattern, variable temperature x-ray powder diffraction ([1]; up to 125° C.) | higher aqueous solubility relative to F-III [2] [%] | weight increase in moisture sorption/desorption isotherm ([3]; over the range of 0–95% RH, 25° C.) [%] | Compound
1 | physically stable | comparable | about 2.2% | 1.5 |  |  |  |  | COc1ccc(-c2sc3cc(O)ccc3c2Oc2ccc(OCCN3CCCCC3)cc2)cc1.Cl [F-I, 6-Hydroxy-3-(4-[2-(piperidin-1-yl)ethoxy]phenoxy)-2-(4-methoxyphenyl)benzo[b]thiophene hydrochloride]
2 | physically stable | comparable | about 3.7% | 1.7 |  |  |  |  | COc1ccc(-c2sc3cc(O)ccc3c2Oc2ccc(OCCN3CCCCC3)cc2)cc1.Cl [F-III, 6-Hydroxy-3-(4-[2-(piperidin-1-yl)ethoxy]phenoxy)-2-(4-methoxyphenyl)benzo[b]thiophene hydrochloride]
3 |  |  |  |  | thermodynamically most stable known form | no significant change | ~10 | 0.11 | COc1ccc(-c2sc3cc(O)ccc3c2Oc2ccc(OCCN3CCCCC3)cc2)cc1.Cl [F-V, 6-Hydroxy-3-(4-[2-(piperidin-1-yl)ethoxy]phenoxy)-2-(4-methoxyphenyl)benzo[b]thiophene hydrochloride]
